Test results reported in the supplement of paper PMC9663587.

How the values were obtained:
Assay in all cases: increase in dead-cell fraction, 72 h; higher = more death;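 note: breast cancer cell lines in 384-well plates, stained with Hoechst plus LIVE/DEAD far red dye and imaged, cells above an LDR intensity threshold counted dead, Hoechst-negative corpses included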
Neratinib/HKI272 = compound: CCOc1cc2ncc(C#N)c(Nc3ccc(OCc4ccccn4)c(Cl)c3)c2cc1NC(=O)/C=C/CN(C)C [Neratinib/HKI272]
[1] = compound: CCc1cnn2c(NCc3ccc[n+]([O-])c3)cc(N3CCCC[C@H]3CCO)nc12
LEE011/Ribociclib = compound: CN(C)C(=O)c1cc2cnc(Nc3ccc(N4CCNCC4)cn3)nc2n1C1CCCC1 [LEE011/Ribociclib]
THZ531 = compound: CN(C)C/C=C/C(=O)Nc1ccc(C(=O)N2CCC[C@@H](Nc3ncc(Cl)c(-c4c[nH]c5ccccc45)n3)C2)cc1 [THZ531]
THZ1 = compound: CN(C)C/C=C/C(=O)Nc1ccc(C(=O)Nc2cccc(Nc3ncc(Cl)c(-c4c[nH]c5ccccc45)n3)c2)cc1 [THZ1]
Flavopiridol = compound: CN1CC[C@H](c2c(O)cc(O)c3c(=O)cc(-c4ccccc4Cl)oc23)[C@H](O)C1 [Flavopiridol]

## HCC1187
Neratinib/HKI272; 0.1 µM
  increase in dead-cell fraction: -0.002
Neratinib/HKI272; 0.3162 µM
  increase in dead-cell fraction: 0.0006
Neratinib/HKI272; 1 µM
  increase in dead-cell fraction: 0.0155
Neratinib/HKI272; 3.162 µM
  increase in dead-cell fraction: 0.0076
[1]; 0.0001 µM
  increase in dead-cell fraction: 0.0033
[1]; 0.0003162 µM
  increase in dead-cell fraction: 0.0035
[1]; 0.001 µM
  increase in dead-cell fraction: 0.0039
[1]; 0.003162 µM
  increase in dead-cell fraction: 0.0055
[1]; 0.01 µM
  increase in dead-cell fraction: 0.0539
[1]; 0.03162 µM
  increase in dead-cell fraction: 0.56
[1]; 0.1 µM
  increase in dead-cell fraction: 0.662
[1]; 0.3162 µM
  increase in dead-cell fraction: 0.668
[1]; 1 µM
  increase in dead-cell fraction: 0.598
LEE011/Ribociclib; 0.001 µM
  increase in dead-cell fraction: -0.0158
LEE011/Ribociclib; 0.003162 µM
  increase in dead-cell fraction: 0.0194
LEE011/Ribociclib; 0.01 µM
  increase in dead-cell fraction: 0.0202
LEE011/Ribociclib; 0.03162 µM
  increase in dead-cell fraction: 0.0086
LEE011/Ribociclib; 0.1 µM
  increase in dead-cell fraction: -0.01
LEE011/Ribociclib; 0.3162 µM
  increase in dead-cell fraction: 0.0057
LEE011/Ribociclib; 1 µM
  increase in dead-cell fraction: 0.0164
LEE011/Ribociclib; 3.162 µM
  increase in dead-cell fraction: 0.0124
LEE011/Ribociclib; 10 µM
  increase in dead-cell fraction: 0.0129
THZ531; 0.0001 µM
  increase in dead-cell fraction: 0.0118
THZ531; 0.0003162 µM
  increase in dead-cell fraction: -0.0088
THZ531; 0.001 µM
  increase in dead-cell fraction: -0.0009
THZ531; 0.003162 µM
  increase in dead-cell fraction: -0.0126
THZ531; 0.01 µM
  increase in dead-cell fraction: -0.0087
THZ531; 0.03162 µM
  increase in dead-cell fraction: -0.0107
THZ531; 0.1 µM
  increase in dead-cell fraction: 0.36
THZ531; 0.3162 µM
  increase in dead-cell fraction: 0.611
THZ1; 0.0001 µM
  increase in dead-cell fraction: -0.0047
THZ1; 0.0003162 µM
  increase in dead-cell fraction: -0.0081
THZ1; 0.001 µM
  increase in dead-cell fraction: 0.0016
THZ1; 0.003162 µM
  increase in dead-cell fraction: 0.019
THZ1; 0.01 µM
  increase in dead-cell fraction: 0.0061
THZ1; 0.03162 µM
  increase in dead-cell fraction: 0.113
THZ1; 0.1 µM
  increase in dead-cell fraction: 0.421
THZ1; 0.3162 µM
  increase in dead-cell fraction: 0.568
THZ1; 1 µM
  increase in dead-cell fraction: 0.624
Flavopiridol; 0.0001 µM
  increase in dead-cell fraction: -0.0206
Flavopiridol; 0.0003162 µM
  increase in dead-cell fraction: 0.0043
Flavopiridol; 0.001 µM
  increase in dead-cell fraction: 0.0532
Flavopiridol; 0.003162 µM
  increase in dead-cell fraction: -0.0091
Flavopiridol; 0.01 µM
  increase in dead-cell fraction: 0.0053
Flavopiridol; 0.03162 µM
  increase in dead-cell fraction: -0.0105
Flavopiridol; 0.1 µM
  increase in dead-cell fraction: 0.0075
Flavopiridol; 0.3162 µM
  increase in dead-cell fraction: 0.15
Flavopiridol; 1 µM
  increase in dead-cell fraction: 0.612
